Drawing on DBAASP, this text covers MIC for four compounds.

In brackets after ≈: the same amount, converted by molar mass.

Test systems include Staphylococcus aureus MR; Enterococcus faecium VR; Enterococcus faecalis; Enterococcus faecium; Enterococcus faecalis VR.
Common to all, as to assay: ≥ marks a high value that may be exact or a test limit, other limits are often not marked, values filed in µg/mL are converted to µM
Experiment [1] deals with Streptococcus pyogenes ATCC 19615.
Experiment [2] has as its system Bacillus subtilis ATCC 6633.
Experiment [3] concerns Staphylococcus aureus ATCC 29213.
Experiment [4] deals with Pseudomonas aeruginosa ATCC 15442.
Experiment [5] relates to Proteus mirabilis ATCC 25933.
For experiment [6], the system named is Escherichia coli ATCC 8739.
The subject of experiment [7] is Escherichia coli KpC+001812446.
The subject of experiment [8] is Enterococcus faecalis ATCC 12953.
Experiment [9] has as its system Klebsiella pneumoniae KpC+001825971.
Experiment [10] concerns Salmonella enterica subsp. enterica serovar Typhimurium ATCC 14028.
Experiment [11] concerns Escherichia coli KpC+002101123.
Experiment [12] concerns Klebsiella pneumoniae ATCC 13885.
Experiment [13] concerns Staphylococcus aureus ATCC 33591.
The subject of experiment [14] is Bacillus subtilis KCTC 3068.
Experiment [15] relates to Staphylococcus aureus KCTC 1621.
Experiment [16] relates to Escherichia coli KCTC 1682.
In experiment [17] the test system is Salmonella typhimurium KCTC 1926.
Experiment [18] deals with Staphylococcus epidermidis KCTC 1917.
Experiment [19] relates to Pseudomonas aeruginosa KCTC 1637.
Experiment [20] has as its system Pseudomonas aeruginosa ATCC 27853.
For experiment [21], the system named is Staphylococcus aureus ATCC 25923.
Experiment [22] concerns Escherichia coli CCARM 1229.
The test system of experiment [23] is Salmonella typhimurium CCARM 8009.
In experiment [24] the test system is Staphylococcus aureus CCARM 3709.
Experiment [25] concerns Pseudomonas aeruginosa 5018.
Experiment [26] concerns Salmonella typhimurium CCARM 8013.
In experiment [27] the test system is Escherichia coli ATCC 25922.
The subject of experiment [28] is Listeria monocytogenes KCTC 3710.
The test system of experiment [29] is Staphylococcus aureus CCARM 3114.
For experiment [30], the system named is Pseudomonas aeruginosa 3592.
The subject of experiment [31] is Escherichia coli CCARM 1238.
The test system of experiment [32] is Enterococcus faecalis PCM 2673.
Experiment [33] deals with Aspergillus niger ATCC 16404.
Experiment [34] has as its system Escherichia coli ATCC 23506.
Experiment [35] relates to Pseudomonas aeruginosa ATCC 9027.
Experiment [36] deals with Klebsiella pneumoniae ATCC 700603.
The test system of experiment [37] is Streptococcus pneumoniae ATCC 49619.
For experiment [38], the system named is Staphylococcus aureus ATCC 9144.
The test system of experiment [39] is Candida albicans ATCC 10231.
The subject of experiment [40] is Candida glabrata ATCC 15126.

As to `CC[C@H](C)[C@H](NC(=O)[C@H](CCCCN)NC(=O)CNC(=O)[C@H](CC(C)C)NC(=O)[C@H](Cc1ccccc1)NC(=O)[C@H](CCC(N)=O)NC(=O)[C@H](Cc1ccccc1)NC(=O)[C@@H](NC(=O)[C@@H](NC(=O)[C@@H](NC(=O)[C@@H]1CCCN1C(=O)[C@H](CC(C)C)NC(=O)[C@@H](N)Cc1ccccc1)[C@@H](C)CC)[C@@H](C)CC)C(C)C)C(=O)N[C@H](C(=O)N[C@@H](Cc1cnc[nH]1)C(=O)N[C@@H](Cc1cnc[nH]1)C(=O)N[C@H](C(=O)NCC(=O)N[C@@H](CC(N)=O)C(=O)N[C@@H](Cc1ccccc1)C(=O)N[C@H](C(=O)N[C@@H](Cc1cnc[nH]1)C(=O)NCC(=O)N[C@@H](Cc1ccccc1)C(=O)N[C@@H](CO)C(=O)N[C@@H](Cc1cnc[nH]1)C(=O)N[C@H](C(=O)N[C@@H](Cc1ccccc1)C(N)=O)C(C)C)C(C)C)C(C)C)[C@@H](C)CC` [FLPIIVFQFLGKIIHHVGNFVHGFSHVF], the MIC in experiment [1] came to 6 µM (≈ 19.5 µg/mL); in experiment [2] it was 1.5 µM (≈ 4.87 µg/mL); in experiment [3], 24 µM (≈ 78 µg/mL); in experiment [4] it was 3 µM (≈ 9.75 µg/mL); in experiment [5] it was 6 µM (≈ 19.5 µg/mL); in experiment [6] it was 12 µM (≈ 39 µg/mL). Also, the minimum inhibitory concentration (MIC) in [7] came to 6 µM (≈ 19.5 µg/mL); in experiment [8] it was 1.5 µM (≈ 4.87 µg/mL); in experiment [9] it was 3 µM (≈ 9.75 µg/mL); in experiment [10], 3 µM (≈ 9.75 µg/mL); in experiment [11], 6 µM (≈ 19.5 µg/mL); in [12] it was 3 µM (≈ 9.75 µg/mL). This compound gave an MIC in experiment [13] of 6 µM (≈ 19.5 µg/mL).

With `CC[C@H](C)[C@H](NC(=O)[C@H](CC(C)C)NC(=O)[C@H](CS)NC(=O)[C@H](Cc1cnc[nH]1)NC(=O)[C@H](C)NC(=O)[C@H](C)N)C(=O)NCC(=O)N[C@@H](CCCN=C(N)N)C(=O)N[C@@H](CCCCN)C(N)=O` [AAHCLIGRK], the minimum inhibitory concentration (MIC) against Staphylococcus aureus MR was 15 µM; in experiment [14] it was 7.5 µM; against Enterococcus faecium VR, 7.5 µM; in experiment [15], 15 µM; in experiment [16], 15 µM; with Enterococcus faecalis, 30 µM. Also, the MIC was determined as 15 µM in experiment [17]; 7.5 µM in [18]; 30 µM against Enterococcus faecium; 30 µM with Enterococcus faecalis VR; 15 µM in [19].

Turning to `CC[C@H](C)[C@H](NC(=O)CN)C(=O)N[C@@H](Cc1cnc[nH]1)C(=O)N[C@@H](Cc1cnc[nH]1)C(=O)N[C@H](C(=O)N[C@@H](CC(C)C)C(=O)N[C@@H](CCCCN)C(=O)N[C@@H](Cc1ccc(O)cc1)C(=O)NCC(=O)N[C@@H](CCCCN)C(=O)N1CCC[C@H]1C(=O)N[C@@H](CO)C(=O)O)[C@@H](C)CC` [GIHHILKYGKPS], the minimal inhibitory concentration (MIC) in experiment [20] was above 32 µM; in experiment [21], above 32 µM; in [22], at least 32 µM; in experiment [23] it was at least 32 µM; in experiment [17] it was at least 32 µM; in experiment [24] it was at least 32 µM. The MIC is at least 32 µM in experiment [25]; at least 32 µM in experiment [26]; above 32 µM in [27]; at least 32 µM in experiment [28]; at least 32 µM in experiment [29]; at least 32 µM in [30]. In experiment [31], this compound showed an MIC of at least 32 µM.

As to `CC[C@H](C)[C@H](NC(=O)CNC(=O)[C@H](C)NC(=O)[C@@H](NC(=O)[C@H](CC(C)C)NC(=O)[C@H](CCCCN)NC(=O)[C@@H](NC(=O)[C@@H](N)CC(C)C)C(C)C)C(C)C)C(=O)N[C@@H](CCCCN)C(=O)N[C@@H](CCCCN)C(=O)N[C@@H](Cc1ccccc1)C(=O)N[C@@H](CC(C)C)C(=O)N[C@@H](CCCCN)C(=O)N[C@@H](Cc1c[nH]c2ccccc12)C(=O)N[C@@H](CCCCN)C(N)=O` [LVKLVAGIKKFLKWK], the minimal inhibitory concentration (MIC) is at least 36.1 µM in experiment [32]; 72.3 µM (≈ 128 µg/mL) in experiment [21]; at least 145 µM in experiment [33]; at least 36.1 µM in experiment [34]; 4.52 µM (≈ 8 µg/mL) in experiment [35]; 1.13 µM (≈ 2 µg/mL) in experiment [36]. The minimum inhibitory concentration (MIC) is at least 72.3 µM in [37]; at least 36.1 µM in experiment [38]; 72.3 µM (≈ 128 µg/mL) in experiment [27]; 145 µM (≈ 256 µg/mL) in [39]; at least 145 µM in experiment [40].

Broadly, the MIC is the lowest concentration that inhibits growth of the organism. The low end stands for greater potency, the high end for weaker potency.
